Measured values reported in patent publication US20200138023A1, “MICROBICIDAL COMPOSITION” (DDP Specialty Electronic Materials US 8, LLC, priority 2017, published 2020).
Read-outs that look alike come from different tables or passages of the source.

What was measured:
[1] = system: Candida albicans ATCC 10231; test: Synergy test, high resolution MIC microtiter plate assay, Potato Dextrose Broth; assay type: cell-based; details: C. albicans ATCC 10231, PDB, contact time 48 hours
Source text: (§1) One measure of synergism is the industrially accepted method described by Kull, F. C.; Eisman, P. C.; Sylwestrowicz, H. D. and Mayer, R. L., in Applied Microbiology 9:538-541 (1961), using the ratio determined by the formula:
(§2) Qa/QA+Qb/QB=Synergy Index (“SI”)
(§3) wherein: • QA=concentration of compound A (first component) in ppm, acting alone, which produced an end point (MIC of Compound A). • Qa=concentration of compound A in ppm, in the mixture, which produced an end point. • QB=concentration of compound B (second component) in ppm, acting alone, which produced an end point (MIC of Compound B). • Qb=concentration of compound B in ppm, in the mixture, which produced an end point.
(§4) When the sum of Qa/QA and Qb/QB is greater than one, antagonism is indicated. […] The lower the SI, the greater is the synergy shown by that particular mixture. The minimum inhibitory concentration (MIC) of a microbicide is the lowest concentration tested under a specific set of conditions that prevents the growth of the tested microorganisms.
(§5) Synergy tests were conducted using standard microtiter plate assays with media designed for optimal growth of the test microorganism. Potato Dextrose Broth (PDB medium) was used for testing yeast and mold. In this method, a wide range of combinations of microbicides and other personal care raw materials was tested by conducting high resolution MIC assays in the presence of lactic acid. High resolution MICs were determined by adding varying amounts of microbicide to one column of a microtitre plate and doing subsequent […] dilutions using an automated liquid handling system to obtain a series of closely spaced endpoints.
(§6) The synergy of the combinations of the present invention was determined against a yeast, Candida albicans (C. albicans—ATCC 10231) and a mold, Aspergillus brasiliensis (A. brasiliensis—ATCC 16404). The yeast and mold were used at concentrations of 5×10^5 cells per mL. These microorganisms are representative of natural contaminants in many consumer and industrial applications.
(§7) In this test, First Component (A) was lactic acid and the Second Component (B) was caprylic acid.
(§8) First Component (A)=Lactic acid (LA) Second Component (B)=Caprylic acid (CA) • Table 1: Aspergillus brasiliensis • ATCC 16404 • Potato Dextrose Broth • Contact Time=7 days • Table 2: Candida albicans • ATCC 10231 • Potato Dextrose Broth • Contact Time=48 hours

[2] = system: Aspergillus brasiliensis ATCC 16404; test: as above; assay type: cell-based; details: A. brasiliensis ATCC 16404, PDB, contact time 7 days; for SI (Synergy Index, Qa/QA+Qb/QB): SI less than one = synergy; for MIC: Aspergillus brasiliensis, ATCC16404, 168 h, 25° C.
Source text: as §1, §2, §3, §4, §5, §6, §7, §8

Row | MIC ([1]; Candida albicans, ATCC10231, caprylic acid alone, 25° C., read-out: Caprylic Acid, ppm: MIC for caprylic acid alone (QB)) [µg/mL] | MIC ([2]; caprylic acid alone, read-out: Caprylic Acid, ppm: MIC for caprylic acid alone (QB)) [µg/mL] | MIC ([2]; lactic acid alone, read-out: Lactic Acid, ppm: MIC for lactic acid alone (QA)) [µg/mL] | Compound | SI (Synergy Index, Qa/QA+Qb/QB) ([1]; SI less than one = synergy) | SI (Synergy Index, Qa/QA+Qb/QB) [2]
1 | 60 | 10000 |  | CCCCCCCC(=O)O [Caprylic Acid, octanoic acid] | 1.00 | 1.00
2 |  |  | 30000 | CC(O)C(=O)O (stereo not drawn) [Lactic Acid, 2-hydroxypropanoic acid] |  | 1.00
